This passage reports IC50 results from patent publication US12371428B2 (Exelixis, Inc., priority 2019, dated 2025).

Structures are written as SMILES.

Assay [1] deals with Met (phospho-Met, HGF-stimulated PC-3 prostate cancer cells) (Homo sapiens (Human), UniProt P08581). Nature of the assay: Met autophosphorylation ELISA in PC-3 cells (Example F). The assay is classed as cell-based. The following applies: cellular activity; Met autophosphorylation ELISA in PC-3 cells; read-out: c-Met IC50. The method, boiled down:
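Serum-starved (3 h) PC-3 cells were treated 1 h with compounds (8-point curve, 0.3% DMSO), then stimulated with 100 ng/mL human HGF for 10 min. Lysate phospho-Met (panTyr) was measured by sandwich ELISA, normalised to DMSO and reference-inhibitor controls. IC50 came from 4-parameter logistic fit.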

For assay [2], the target named is KDR (phospho-KDR, VEGF165-stimulated HUVEC cells) (Homo sapiens (Human), UniProt P35968). Nature of the assay: KDR autophosphorylation ELISA in HUVEC cells (Example G). The assay is classed as cell-based. The following applies: cellular activity; KDR autophosphorylation ELISA in HUVEC cells. The procedure, abridged: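 Inhibition of VEGF165-driven KDR autophosphorylation is measured in primary human umbilical vein endothelial cells after 24 h serum deprivation. Compound preincubation lasts 1 h before a 5-minute challenge with 100 ng/mL ligand, and phosphorylated receptor is then measured by ELISA in the lysates.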
Chain of KDR (phospho-KDR, VEGF165-stimulated HUVEC cells) (P35968 20-1356): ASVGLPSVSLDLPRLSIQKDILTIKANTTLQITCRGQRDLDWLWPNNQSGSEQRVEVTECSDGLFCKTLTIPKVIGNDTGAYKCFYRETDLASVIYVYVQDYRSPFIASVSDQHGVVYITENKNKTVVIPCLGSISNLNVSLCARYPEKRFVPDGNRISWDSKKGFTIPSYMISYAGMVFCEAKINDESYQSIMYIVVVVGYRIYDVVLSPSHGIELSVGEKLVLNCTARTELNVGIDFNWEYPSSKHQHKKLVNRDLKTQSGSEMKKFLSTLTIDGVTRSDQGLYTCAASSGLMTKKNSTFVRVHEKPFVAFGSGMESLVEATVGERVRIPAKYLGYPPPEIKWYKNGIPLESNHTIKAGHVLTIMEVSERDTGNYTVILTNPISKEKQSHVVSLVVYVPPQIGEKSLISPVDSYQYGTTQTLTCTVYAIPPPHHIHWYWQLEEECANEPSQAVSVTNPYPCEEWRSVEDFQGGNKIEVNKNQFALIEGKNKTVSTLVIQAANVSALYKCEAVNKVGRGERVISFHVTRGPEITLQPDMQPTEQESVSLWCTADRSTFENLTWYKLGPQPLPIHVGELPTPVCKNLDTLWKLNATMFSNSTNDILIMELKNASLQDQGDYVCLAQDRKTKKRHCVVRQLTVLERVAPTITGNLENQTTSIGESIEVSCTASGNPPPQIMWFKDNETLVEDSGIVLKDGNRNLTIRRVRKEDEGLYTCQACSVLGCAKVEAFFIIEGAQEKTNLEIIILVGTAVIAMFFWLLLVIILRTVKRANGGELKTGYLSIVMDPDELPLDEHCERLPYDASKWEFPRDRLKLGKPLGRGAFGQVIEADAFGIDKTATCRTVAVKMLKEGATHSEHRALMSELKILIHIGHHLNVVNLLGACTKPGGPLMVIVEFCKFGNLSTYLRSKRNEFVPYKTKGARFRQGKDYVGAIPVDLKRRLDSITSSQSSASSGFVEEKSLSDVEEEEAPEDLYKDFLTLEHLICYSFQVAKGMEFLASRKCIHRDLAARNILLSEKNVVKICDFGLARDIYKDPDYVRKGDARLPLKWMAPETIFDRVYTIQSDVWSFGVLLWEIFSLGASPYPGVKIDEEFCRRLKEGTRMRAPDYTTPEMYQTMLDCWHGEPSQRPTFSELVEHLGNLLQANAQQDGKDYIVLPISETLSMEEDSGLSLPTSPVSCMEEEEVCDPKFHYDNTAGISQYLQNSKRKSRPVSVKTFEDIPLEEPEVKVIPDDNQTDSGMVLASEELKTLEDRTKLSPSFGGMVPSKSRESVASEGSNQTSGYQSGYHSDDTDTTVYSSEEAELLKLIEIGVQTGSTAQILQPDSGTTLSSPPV

Chain of Met (phospho-Met, HGF-stimulated PC-3 prostate cancer cells) (P08581 25-1390): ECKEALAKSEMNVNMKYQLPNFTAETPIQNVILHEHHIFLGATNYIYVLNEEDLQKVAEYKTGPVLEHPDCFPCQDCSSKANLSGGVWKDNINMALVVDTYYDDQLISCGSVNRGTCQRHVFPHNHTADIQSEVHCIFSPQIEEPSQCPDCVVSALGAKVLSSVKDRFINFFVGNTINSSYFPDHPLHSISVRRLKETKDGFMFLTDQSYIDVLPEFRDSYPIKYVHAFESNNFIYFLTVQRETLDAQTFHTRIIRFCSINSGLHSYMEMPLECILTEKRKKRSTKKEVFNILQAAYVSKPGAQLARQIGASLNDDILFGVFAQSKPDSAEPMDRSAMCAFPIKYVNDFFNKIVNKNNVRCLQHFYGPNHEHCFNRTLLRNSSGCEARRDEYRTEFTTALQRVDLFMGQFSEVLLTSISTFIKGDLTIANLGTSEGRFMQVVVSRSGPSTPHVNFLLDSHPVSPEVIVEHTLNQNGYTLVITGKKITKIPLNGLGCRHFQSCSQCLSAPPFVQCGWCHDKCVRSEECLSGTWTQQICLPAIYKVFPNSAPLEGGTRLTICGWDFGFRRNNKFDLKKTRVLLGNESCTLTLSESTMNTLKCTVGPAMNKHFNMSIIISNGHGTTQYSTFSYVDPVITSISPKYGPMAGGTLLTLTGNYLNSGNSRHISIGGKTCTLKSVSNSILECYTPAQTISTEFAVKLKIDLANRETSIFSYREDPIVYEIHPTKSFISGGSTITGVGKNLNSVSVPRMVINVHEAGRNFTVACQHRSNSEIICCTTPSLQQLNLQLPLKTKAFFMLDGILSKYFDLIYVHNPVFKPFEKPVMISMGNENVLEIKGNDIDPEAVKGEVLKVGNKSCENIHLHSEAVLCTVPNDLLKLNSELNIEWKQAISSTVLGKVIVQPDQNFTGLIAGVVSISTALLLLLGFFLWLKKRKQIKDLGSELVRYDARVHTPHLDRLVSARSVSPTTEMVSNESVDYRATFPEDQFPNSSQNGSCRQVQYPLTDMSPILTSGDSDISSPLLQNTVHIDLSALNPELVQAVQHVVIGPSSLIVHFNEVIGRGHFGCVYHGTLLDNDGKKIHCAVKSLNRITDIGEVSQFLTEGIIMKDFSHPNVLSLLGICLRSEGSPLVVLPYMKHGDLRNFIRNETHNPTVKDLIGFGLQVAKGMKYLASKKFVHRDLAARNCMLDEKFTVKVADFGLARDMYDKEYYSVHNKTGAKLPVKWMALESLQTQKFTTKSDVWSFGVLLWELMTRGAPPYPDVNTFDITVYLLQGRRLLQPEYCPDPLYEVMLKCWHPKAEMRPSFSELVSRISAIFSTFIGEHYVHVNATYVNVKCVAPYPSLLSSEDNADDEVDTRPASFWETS

As for `Cc1nc2c(Oc3ccc(NC(=O)c4cn(C(C)C)c(C)c(-c5ccc(F)cc5)c4=O)cc3F)ccnc2cc1Br` [Compound 153, N-[4-[(7-Bromo-6-methyl-1,5-naphthyridin-4-yl)oxy]-3-fluorophenyl]-5-(4-fluorophenyl)-6-methyl-4-oxo-1-propan-2-ylpyridine-3-carboxamide], the values for the IC50 in assay [1] and in assay [2] were less than 100 nM and greater than 300 nM, respectively.

For the compound `COc1cc2nccc(Oc3ccc(NC(=O)c4cnc(C(C)(C)C)c(-c5ccc(F)cc5)c4O)cc3F)c2nc1OC` [Compound 155, 6-tert-Butyl-N-[4-[(6,7-dimethoxy-1,5-naphthyridin-4-yl)oxy]-3-fluorophenyl]-5-(4-fluorophenyl)-4-hydroxypyridine-3-carboxamide], the IC50 in assay [1] is 100 to 300 nM; in assay [2], greater than 300 nM.

Turning to `COc1cnc2c(Oc3ccc(NC(=O)c4cn(C)c(C)c(-c5ccc(F)cc5)c4=O)cc3F)ccnc2c1` [Compound 156, N-[3-Fluoro-4-[(7-methoxy-1,5-naphthyridin-4-yl)oxy]phenyl]-5-(4-fluorophenyl)-1,6-dimethyl-4-oxopyridine-3-carboxamide], the IC50 in assay [1] was less than 100 nM; in assay [2] it was greater than 300 nM.

For `COc1cc2nccc(Oc3ccc(NC(=O)c4cn(CCN5CCOCC5)cc(-c5ccc(F)cc5)c4=O)cc3F)c2nc1OC` [Compound 157, N-[4-[(6,7-Dimethoxy-1,5-naphthyridin-4-yl)oxy]-3-fluorophenyl]-5-(4-fluorophenyl)-1-(2-morpholin-4-ylethyl)-4-oxopyridine-3-carboxamide], the half-inhibitory concentration (IC50) in assay [1] is less than 100 nM; in assay [2], 100 to 300 nM.

In the case of `Cc1c(-c2ccc(F)cc2)c(=O)c(C(=O)Nc2ccc(Oc3ccnc4cc(F)cnc34)c(F)c2)cn1C(C)C` [Compound 162, N-[3-Fluoro-4-[(7-fluoro-1,5-naphthyridin-4-yl)oxy]phenyl]-5-(4-fluorophenyl)-6-methyl-4-oxo-1-propan-2-ylpyridine-3-carboxamide], the IC50 in assay [1] was 100 to 300 nM; in assay [2], greater than 300 nM.

As to `CCn1cc(C(=O)Nc2ccc(Oc3ccnc4cc(OC)cnc34)cc2)c(=O)c(-c2ccc(F)cc2)c1C` [Compound 163, 1-Ethyl-5-(4-fluorophenyl)-N-[4-[(7-methoxy-1,5-naphthyridin-4-yl)oxy]phenyl]-6-methyl-4-oxopyridine-3-carboxamide], the IC50 in assay [1] was less than 100 nM; in assay [2], greater than 300 nM.

Consider `CCn1cc(C(=O)Nc2ccc(Oc3ccnc4cc(OC)cnc34)c(F)c2)c(=O)c(-c2ccc(F)cc2)c1C` [Compound 164, 1-Ethyl-N-[3-fluoro-4-[(7-methoxy-1,5-naphthyridin-4-yl)oxy]phenyl]-5-(4-fluorophenyl)-6-methyl-4-oxopyridine-3-carboxamide], for which the IC50 is less than 100 nM in assay [1] and greater than 300 nM in assay [2].

As to `COc1cnc2c(Oc3ccc(NC(=O)c4cn(C(C)(C)C)c(C)c(-c5ccc(F)cc5)c4=O)cc3F)ccnc2c1` [Compound 166, 1-tert-Butyl-N-[3-fluoro-4-[(7-methoxy-1,5-naphthyridin-4-yl)oxy]phenyl]-5-(4-fluorophenyl)-6-methyl-4-oxopyridine-3-carboxamide], the IC50 was less than 100 nM in assay [1] and greater than 300 nM in assay [2].

As to `CCn1cc(C(=O)Nc2ccc(Oc3ccnc4cc(OC)c(OC)nc34)cc2)c(=O)c(-c2ccc(F)cc2)c1` [Compound 167, N-[4-[(6,7-Dimethoxy-1,5-naphthyridin-4-yl)oxy]phenyl]-1-ethyl-5-(4-fluorophenyl)-4-oxopyridine-3-carboxamide], the IC50 in assay [1] and in assay [2] was less than 100 nM throughout.

Regarding `CCn1cc(C(=O)Nc2ccc(Oc3ccnc4cc(OC)c(OC)nc34)cc2)c(=O)c(-c2ccc(F)cc2)c1C` [Compound 168, N-[4-[(6,7-Dimethoxy-1,5-naphthyridin-4-yl)oxy]phenyl]-1-ethyl-5-(4-fluorophenyl)-6-methyl-4-oxopyridine-3-carboxamide], the IC50 is less than 100 nM in assay [1] and 100 to 300 nM in assay [2].
